Measured values taken from patent publication US20100168033A1, “UNACYLATED GHRELIN AS THERAPEUTIC AGENT IN THE TREATMENT OF METABOLIC DISORDERS” (ALIZE PHARMA SAS, priority 2007, published 2010).
Entries after “also recorded” stand apart in the source; their conditions may differ. Where two headings read alike, the source gives them in different places. No end group written: not given here.

Columns and labels:
[1] = test system: HIT-T15 β-cells; format: cell-based
Description: MTT experiments were also performed in hamster HIT-T15 β-cells, to test the survival effect of UAG (1-28) or its fragments UAG (1-14), UAG (1-18), UAG (1-5) and UAG (17-28) in serum deprived medium, either alone or with IFN-γ/TNF-α/IL-1β. As for the experiments performed on INS-1E β-cells, the peptides were tested at increasing concentrations, ranging from 0.1 nM to 100 nM.
The survival effect of UAG (6-13), UAG (8-13), UAG (8-12), UAG (8-11), UAG (9-12) and UAG (9-11) was assessed in cytokine-treated HIT-T15 β-cells.
The protective effects of peptides UAG (8-13) and UAG (8-12) were found similar to those of UAG (1-14) and UAG (1-18) A peptide made of the inverse sequence of UAG (1-14) and named UAG (14-1), was used as negative control for these experiments (FIG. 5A). […] These effects were however lower than those of UAG (6-13) (FIG. 5B).
UAG fragments with alanine (Ala) substitutions at different amino acid positions (6 to 13) were tested with regards to their survival effects in HIT-T15 hamster β-cells. The cells were cultured in serum deprived medium, either alone or with IFN-γ/TNF-α/IL-1β. The peptides were tested at the concentrations of 1 nM to 100 nM. […] Under treatment with cytokines, where cell survival was reduced by ≈18% with respect to serum starved conditions, all Ala substitutions, except those at positions 10 and 11, completely reversed cell death and brought the survival rate to levels that were even higher than those under serum-free conditions, at both 1 nM and 100 nM concentrations. These effects, were similar to those elicited by the original peptide UAG (6-13) (FIG. 11B).
Particularly, the best effect was exerted by Gly 6-UAG (6-13), whereas the lowest was seen using AcSer 6-UAG (6-13), AcSer 6-(D)Pro 7-UAG (6-13) (FIG. 12B).
(§1) Cell culture—Hamster HIT-T15 insulin-secreting β-cells were obtained and cultured as described (Refs. 14, 4). INS-1E rat β-cells were kindly provided by Prof. Claes B. Wollheim (University Medical Center, Geneva, Switzerland) and cultured as described (Refs. 14, 4). Cell culture reagents were from Invitrogen (Milano, Italy). Cytokines were from Biosource (Invitrogen, Italy).
(§2) Cell survival assay—Cell survival was assessed by 3-[4,5-dimethylthiazol-2-yl]-2,5 diphenyltetrazolium bromide (MTT) as described previously (Ref. 4). Cells were seeded on 96-well plates at a density of 5×10^3 cells/well. After treatments, cells were incubated with 1 mg/ml MTT for ≈1 h. The medium was aspirated, and the formazan product solubilized with 100 μl DMSO. Viability was assessed by spectrophotometry at 570 nm absorbance using a 96-well plate reader.

[2] = test system: HIT-T15 β-cells; experiment: Insulin secretion in HIT-T15 β-cells; format: cell-based, hamster; conditions: data not shown
Description: Insulin secretion—HIT-T15 cells were plated at density of 5×10^5 cells into 100-mm dishes and serum starved for 24 h before incubation for 1 h at 37° C. in HEPES-buffered Krebs-Ringer bicarbonate buffer (KRBH), containing 0.5% BSA with 1.25 mM glucose. The medium was changed and the cells were incubated again for 1 h in KRBH/0.5% BSA containing 1.25, 7.5 or 15 mM glucose. Following acid ethanol extraction of the hormone, secreted insulin was quantitated by a radioimmunoassay kit (Linco Research, Labodia, Yens, Switzerland) which recognizes human insulin and cross reacts with rat insulin.

[3] = test system: human pancreatic islets; experiment: Insulin secretion in human pancreatic islets; format: cell-based; conditions: peptide 100 nM; glucose absent or 2 to 25 mM
Description: The effects of UAG (1-14) and UAG (1-18), both used at 100 nM, were investigated on insulin secretion in human islets. […] UAG (1-28) and Exendin-4 were used as positive controls (FIGS. 8C and 8D).

[4] = test system: INS-1E β-cells; experiment: MTT cell survival assay in INS-1E β-cells; format: cell-based, rat; conditions: peptides 0.1 nM to 100 nM
Description: The peptides were tested at increasing concentrations, ranging from 0.1 nM to 100 nM.
as §1, §2

[5] = test system: UAG receptor on HIT-T15 pancreatic β-cells; experiment: [125I-Tyr4]-UAG competition binding, HIT-T15 membranes; parameters: species or system hamster; conditions: HIT-T15 cells
Description: (§3) The ability of the fragment UAG (6-13) to compete in a concentration-dependent manner with [^125I-Tyr^4]-UAG for HIT-T15 (FIG. 10A) and INS-1E (FIG. 10B) binding sites was assayed. As shown in FIGS. 10A and 10B, unlabelled UAG (1-28) and UAG (6-13) competed with a similar efficacy and in a concentration-dependent fashion with [^125I-Tyr^4]-UAG for such binding sites in both cell lines.
(§4) Binding assay—Membranes from hamster HIT-T15 and rat INS-1E to pancreatic β-cells were prepared and assayed for the presence of [^125I-Tyr^4]-UAG binding. The ability of UAG fragments to compete with the radioligand for such binding sites has been evaluated as previously described (Ref. 4). Data are presented as mean±S.E.M. of three independent experiments.

[6] = test system: human pancreatic islets; experiment: MTT cell survival assay in human pancreatic islets; format: cell-based; conditions: 1 nM to 100 nM
Description: The survival effect of UAG (1-14), UAG (1-18), UAG (1-5) and UAG (17-28), with respect to that of full length UAG (1-28), was assessed in human pancreatic islets by MTT. The peptides were tested in islet cells cultured in serum deprived medium, either alone or with IFN-γ/TNF-α/IL-1β (5 ng/ml each).
Human islet isolation—Human islets were obtained from pancreases of multiorgan donors as described (Ref. 4). Islet preparations with purity >70%, not suitable for transplantation, were provided by European Consortium for Islet Transplantation (ECIT) “Islets for Research Distribution Program,” Transplant Unit, Scientific Institute San Raffaele, Vita-Salute University, Milan. Islets (10,000) were cultured in CMRL (Invitrogen) with 10% FBS.
as §2

[7] = test system: UAG receptor on INS-1E pancreatic β-cells; experiment: [125I-Tyr4]-UAG competition binding, INS-1E membranes; parameters: species or system rat; conditions: INS-1E cells
Description: as §3, §4

[8] = serum deprived medium with IFN-γ/TNF-α/IL-1β

Substance	cell survival (MTT) ([1]; serum deprived medium alone)	cell survival (MTT) [1, 8]	glucose-induced insulin secretion [2]	insulin secretion [3]	cell survival (MTT) [4, 8]	cell survival (MTT) ([4]; serum-free medium)	binding to the UAG receptor [5]	cell survival (MTT) ([6]; serum deprived medium alone)	cell survival (MTT) ([6]; serum deprived medium with IFN-γ/TNF-α/IL-1β (5 ng/ml each))	binding to the UAG receptor [7]
GSSFLSPEHQRVQQ [UAG (1-14)]	significantly increased cell viability	significantly increased cell viability	significantly increased glucose-induced insulin secretion	significantly increased insulin secretion both in the absence and presence of glucose	more potent than full length UAG (1-28); also recorded: even stronger than native UAG	significant survival effect, comparable to that of UAG (1-28)	recognized and bound to the UAG receptor	significantly increased cell survival in serum deprived medium at 10 nM and 100 nM	prevented cell death at 100 nM	recognized and bound to the UAG receptor
exendin-4: positive control for insulin secretion, from Phoenix Pharmaceuticals [reference compound]			significantly increased glucose-induced insulin secretion	significantly increased insulin secretion both in the absence and presence of glucose						
